In brackets after ≈: the same amount, converted by molar mass.
Tests used:
[1] = system: OVCAR8 ovarian cancer cell line; assay: IC50 in ovarian cancer cell line OVCAR8; assay type: cell-based; conditions: OVCAR8
Experimental: (§1) The compounds shown in FIG. 2 were tested against two different ovarian cancer cell lines (xenograft mouse model OVCAR3 and OVCAR8 ovarian cancer cell lines). […] A summary of the test data is shown in FIGS. 3A, 3B, and 4 and Table 3. A comparison of the IC50 values of the compounds in FIG. 2 in two of the ovarian cancer cell lines (OVCAR3 and OVCAR8) reveal subtle differences in activity.

mice = assay: Toxicity and maximum tolerated dose in mice by IV, IP or PO route; assay type: in vivo; conditions: for MTD (maximum tolerated dose) / Toxicity (survival): mice
Experimental: To determine toxicity, PHY-34 was administered to mice by the bolus intravenous (IV), bolus intraperitoneal (IP), or oral (PO) route to the assigned animals.

[2] = system: numerous other cell lines; assay: In vitro activity in numerous other cell lines; assay type: cell-based
Hollow fiber assay = assay: Hollow fiber assay; parameters: species or system mice; conditions: mouse
Experimental: Hollow fiber assay, IVIS imaging, tubulin inhibition, autophagy, and tumor burden were determined in mice exposed to various arylnaphthalene ligans.

[3] = system: OVCAR3 ovarian cancer cell line; assay: IC50 in ovarian cancer cell line OVCAR3; assay type: cell-based; conditions: OVCAR3
Experimental: as §1

[4] = Solubility, plate reader-based absorbance assay; assay type: physicochemical
Source text: A series of compounds were synthesized to improve their water solubility. In particular, phyllanthusmin derivatives including an arabinose derivative with a free C2 hydroxy group, have been explored to produce phosphate, succinate, and amino acid conjugates. In addition PHY-25 and PHY-30 have also been synthesized to contain similar alcohol functionality that can ultimately be utilized to improve water solubility. PHY-28 and PHY-29 containing a glucosamine moiety were also synthesized for improved water solubility. The water solubility of these and other PHY derivatives was assessed (Table 2) to establish a baseline of solubility in a series of 4 solutions. This was accomplished using a plate reader-based absorbance assay.
(§2) The solubility, maximum tolerated dose, and pharmacokinetics of the phyllanthusmins, facilitating the in vivo studies with PHY-34, were also determined. The solubility of the compounds were assessed in DMSO, PEG300, HPβCD, and PBS. The stability of PHY-34 was assessed in a formulation comprising PEG300 and saline at a 1:1 volume ratio. The solution was prepared at a concentration of 7 mg/ml. A plate reader-based absorbance assay or LC-MS/MS was used. Table 4 summarizes the solubility measurements. FIG. 5 and Table 5 summarize the stability measurements. FIGS. 6A and 6B show the concentration-time profile of PHY-34 in mouse plasma via different administration routes

HT-29 cells = assay: Cytotoxicity / antiproliferative activity against HT-29 cells; assay type: cell-based; conditions: in vitro
Source text: The cytotoxicity of the compounds in FIG. 1 was screened against HT-29 cells by a previously reported procedure (Ren Y et al. J. Nat. Prod 2011, 74, 1117-1125). A summary of the results is described in Table 1.

[5] = Stability of PHY-34 in PEG300/saline formulation; assay type: physicochemical; conditions: for Stability of PHY-34 / Stability of PHY-34, second value column: PEG300:saline 1:1, 7 mg/ml
Experimental: as §2

[6] = mouse, in vivo
Experimental: as §2

Q: Which results are given for `COc1cc2c(OC3OC(CO)C4OC(C)(C)OC4C3O)c3c(c(-c4ccc5c(c4)OCO5)c2cc1OC)C(=O)OC3` (centres unmarked) [PHY-34]?
A: IC50 [1]: 4.06 nM; potency in ovarian cancer cell lines (in words) [1]: highest potency; MTD (maximum tolerated dose) (mice; IP): 1.8 mpk; Toxicity (survival) (mice; IP, 0.6 mpk): all 3 alive; Toxicity (survival) (mice; IP, 1.8 mpk): all 5 alive; Toxicity (survival) (mice; IP, 3 mpk, within 0.5): all 3 died within 0.5; Toxicity (survival) (mice; IP, 6 mpk, within 0.5 hour): all 5 died within 0.5; MTD (maximum tolerated dose) (mice; IV): 0.6 mpk; Toxicity (survival) (mice; IV, 0.3 mpk): all 5 alive; Toxicity (survival) (mice; IV, 0.6 mpk): all 5 alive; Toxicity (survival) (mice; IV, 1 mpk, within 0.5 hour): 1 out of 5 died within; Toxicity (survival) (mice; IV, 3 mpk, within 5 minutes): all 5 died within 5; MTD (maximum tolerated dose) (mice; PO): >30 mpk; Toxicity (survival) (mice; PO, 30 mpk): all 5 alive; toxicity on oral dosing (in words) (mice; oral dosing, up to 30 mpk): no toxicity; activity in numerous other cell lines (in words) [2]: single digit nanomolar; efficacy in vivo in hollow fiber assay (in words) (Hollow fiber assay): demonstrated efficacy; IC50 [3]: 3.94 nM; potency in ovarian cancer cell lines (in words) [3]: highest potency; Solubility in 30% HPβCD [4]: 1.7 mg/mL (≈ 2.92 mM); Solubility in DMSO [4]: 114.4 mg/mL (≈ 196 mM); Solubility in PBS [4]: 0.03 mg/mL (≈ 0.0515 mM); Solubility in PEG300 [4]: 27.6 mg/mL (≈ 47.4 mM); activity against HT-29 cells (in words) (HT-29 cells): sub-nanomolar; Stability of PHY-34 ([5]; 4° C., 1 week): 86; Stability of PHY-34 ([5]; 4° C., 1 day): 95; Stability of PHY-34, second value column ([5]; 4° C., 1 day): 77; Stability of PHY-34 ([5]; RT, 0 hr): 100; Stability of PHY-34, second value column ([5]; RT, 0 hr): 100; Stability of PHY-34 ([5]; RT, 6 hr): 87; Stability of PHY-34, second value column ([5]; RT, 6 hr): 82; Stability of PHY-34 ([5]; −20° C., 1 week): 87; Stability of PHY-34, second value column ([5]; −20° C., 1 week): 77; Stability of PHY-34 ([5]; −20° C., 1 day): 90; Stability of PHY-34, second value column ([5]; −20° C., 1 day): 82; Stability of PHY-34 ([5]; −80° C., 1 week): 86; Stability of PHY-34, second value column ([5]; −80° C., 1 week): 81; Stability of PHY-34 ([5]; −80° C., 1 day): 93; Stability of PHY-34, second value column ([5]; −80° C., 1 day): 80; stability of PHY-34 solution upon storage (in words) ([5]; storage for one week at 4° C. to −80° C.): stable (no significant degradation); AUC on oral dosing (in words) [6]: reasonable AUCs

Reference: patent US10682367B2, “Antitumor arylnaphthalene ligand glycosides” (OHIO STATE INNOVATION FOUNDATION, priority 2016, dated 2020)
